From ChEMBL document CHEMBL3596174, “Investigation on the sucrose binding pocket of HIV-1 Integrase by molecular dynamics and synergy experiments” (Bioorg Med Chem Lett, 2015)

Key:
[1] = biological target: Human immunodeficiency virus type 1 integrase (Human immunodeficiency virus 1, UniProt Q7ZJM1); assay: Binding affinity to recombinant HIV-1 integrase catalytic core domain expressed in Escherichia coli assessed as inhibition of interaction with […] by HTRF assay
[2] = biological target: Human immunodeficiency virus type 1 integrase (Human immunodeficiency virus 1) (UniProt Q7ZJM1); assay: Inhibition of His-tagged HIV-1 integrase-mediated 3' processing and strand transfer reactions using 5'-ACAGGCCTAGCACGCGTCG-Biotin-3' annealed with 5'-CGACGCGTGGTAGGCCTGT-Biotin3'/5'-Cy5-ATGTGGAAAATCTCTAGCAGT-3' annealed with 5'-Cy5-TGAGCTCGAGATTTTCCACAT-3' as donar/acceptor DNA substrate preincubated for 1 hr followed by DNA and LEDGF/p75 addition measured after 90 mins by HTRF assay
Human immunodeficiency virus type 1 integrase (Human immunodeficiency virus 1), sequence (Q7ZJM1 as listed by the source): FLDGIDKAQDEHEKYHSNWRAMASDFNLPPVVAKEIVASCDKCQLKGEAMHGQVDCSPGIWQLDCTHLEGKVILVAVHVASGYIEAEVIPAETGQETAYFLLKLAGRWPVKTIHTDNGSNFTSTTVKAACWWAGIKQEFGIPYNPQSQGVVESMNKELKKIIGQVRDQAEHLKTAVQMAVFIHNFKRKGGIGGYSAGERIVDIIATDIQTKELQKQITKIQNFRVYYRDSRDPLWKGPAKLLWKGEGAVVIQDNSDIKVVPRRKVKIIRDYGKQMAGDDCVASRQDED

Human immunodeficiency virus type 1 integrase, sequence (Q7ZJM1 whole entry, the tested form may be a part): as the sequence (Q7ZJM1 as listed by the source) above

## Cc1nc2ccc(Br)cc2c(-c2ccc(Cl)cc2)c1[C@H](OC(C)(C)C)C(=O)O
[1]
  IC50: 60 nM

## Cc1nc2ccccc2c(-c2cc(F)c3c(c2C)CCCO3)c1[C@H](OC(C)(C)C)C(=O)O
[1]
  IC50: 18 nM

## CCC[C@H](C(=O)O)c1c(C)nc2ccc(Cl)cc2c1-c1ccccc1
[2]
  inhibition: Dose-dependent effect
